Results reported in patent publication US7749992B2, “Compounds and methods for treating dislipidemia” (Eli Lilly and Company, priority 2003, dated 2010).

Biological target: T1, human CETP (Homo sapiens, UniProt P11597)
T1 construct: made in house; host or cells: AV-12 cells (engineered to express human CETP)
T1 sequence (P11597 18-493): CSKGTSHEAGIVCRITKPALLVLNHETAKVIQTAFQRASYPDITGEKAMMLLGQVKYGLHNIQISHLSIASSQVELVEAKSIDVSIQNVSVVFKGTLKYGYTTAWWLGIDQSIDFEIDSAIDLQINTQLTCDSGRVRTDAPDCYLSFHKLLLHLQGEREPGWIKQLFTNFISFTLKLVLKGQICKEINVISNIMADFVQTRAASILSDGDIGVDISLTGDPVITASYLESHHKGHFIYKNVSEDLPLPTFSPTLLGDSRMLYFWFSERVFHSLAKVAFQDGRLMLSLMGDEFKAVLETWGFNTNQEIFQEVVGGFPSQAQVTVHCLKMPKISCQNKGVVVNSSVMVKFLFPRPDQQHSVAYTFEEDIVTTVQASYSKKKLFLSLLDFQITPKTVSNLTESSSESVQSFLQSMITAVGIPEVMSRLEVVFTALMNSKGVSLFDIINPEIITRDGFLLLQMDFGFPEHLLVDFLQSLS
Assay: In vitro CETP inhibitor assay: SPA assay
Format: biochemical
Conditions: CETP produced by AV-12 cells expressing human CETP; [3H]cholesterol ester transfer from HDL to biotinylated LDL; 30-minute incubation at 37 C; HEPES-NaCl based buffer; read-out: Inhibition of CETP Activity (SPA assay) IC50
Description: An in vitro scintillation proximity assay (SPA) has been used to test the ability of compounds of this invention to inhibit the transfer of radiolabeled cholesterol esters between HDL and LDL. This assay monitors the inhibition of the transfer of [^3H]cholesterol esters from HDL (Amersham) to biotinylated LDL (Amersham) by a CETP source. CETP produced by AV-12 cells that have been created to express human CETP has been used to mediate the transfer. After a 30-minute incubation at 37 C in which the radiolabeled cholesterol ester is transferred in a HEPES-NaCl based buffer, the reaction is stopped and the biotinylated LDL is bound to streptavidin/scintillant coated SPA beads (Amersham). Then the radioactive signal is measured in a Packard 96-well scintillation TopCounter with window settings fully open. Compounds of this invention can be added to the reaction mixture in an appropriate solvent to assess their ability to inhibit the transfer of the radiolabeled cholesterol esters by CETP, represented by a decrease in radioactive signal. The activity transferred in the reaction mixtures with control solvents is rated as 100% transfer. The compound concentration at which the activity is midway between 100% and the lowest recorded activity is indicated as the IC50 value. A three-parameter fixed top logistic curve-fitting algorithm is used to generate the IC50 value.

| Compound | IC50 |
| --- | --- |
| CC(=O)N(Cc1cc(C(F)(F)F)cc(C(F)(F)F)c1)C1CCCN(C(=O)OC(C)(C)C)c2cc(C(F)(F)F)c(C)cc21 (stereo not shown) [Example 117, 5-[Acetyl-(3,5-bis-trifluoromethyl-benzyl)-amino]-7-methyl-8-trifluoromethyl-2,3,4,5-tetrahydro-benzo[b]azepine-1-carboxylic acid tert-butyl ester] | 65 nM |
| CC(=O)N(Cc1cc(C(F)(F)F)cc(C(F)(F)F)c1)C1CCCN(C(=O)OC(C)C)c2ccccc21 (stereo not shown) [Example 1, 5-[Acetyl-(3,5-bis-trifluoromethyl-benzyl)-amino]-2,3,4,5-tetrahydro-benzo[b]azepine-1-carboxylic acid isopropyl ester] | 293 nM |
| CC(=O)N(Cc1cc(C(F)(F)F)cc(C(F)(F)F)c1)[C@H]1CCCN(C(=O)OC(C)C)c2cc(C(F)(F)F)c(C)cc21 [Example 111, (S)-5-[Acetyl-(3,5-bis-trifluoromethyl-benzyl)-amino]-7-methyl-8-trifluoromethyl-2,3,4,5-tetrahydro-benzo[b]azepine-1-carboxylic acid isopropyl ester] | 68 nM |
| CC(=O)N(Cc1cc(C(F)(F)F)cc(C(F)(F)F)c1)[C@H]1CCCN(C(=O)OC(C)(C)C)c2cc(C(F)(F)F)c(C)cc21 [Example 119, (S)-5-[Acetyl-(3,5-bis-trifluoromethyl-benzyl)-amino]-7-methyl-8-trifluoromethyl-2,3,4,5-tetrahydro-benzo[b]azepine-1-carboxylic acid tert-butyl ester] | 42 nM |

The remaining lines, values ahead:

| IC50 | Compound |
| --- | --- |
| 191 nM | CC(=O)N(Cc1cc(C(F)(F)F)cc(C(F)(F)F)c1)C1CCCN(C(=O)OC2CCCC2)c2cc(OC(F)(F)F)c(C)cc21 (stereo not shown) [Example 182, 5-[Acetyl-(3,5-bis-trifluoromethyl-benzyl)-amino]-7-methyl-8-trifluoromethoxy-2,3,4,5-tetrahydro-benzo[b]azepine-1-carboxylic acid cyclopentyl ester] |
| 54 nM | CC(=O)N(Cc1cc(C(F)(F)F)cc(C(F)(F)F)c1)C1CCCN(C(=O)OC(C)C)c2c1ccc1c2CCC1 (racemic) [Example 129, (+/−)-6-[Acetyl-(3,5-bis-trifluoromethyl-benzyl)-amino]-2,3,6,7,8,9-hexahydro-1H-10-aza-cyclohepta[e]indene-10-carboxylic acid isopropyl ester] |

Tested on: transgenic mice that express both human CETP and human apolipoprotein A-1
Assay: Assay of plasma lipids in vivo (elevation of HDL cholesterol)
Conditions: single oral dose 30 mg/kg; at 8 hr; serum HDL cholesterol relative to control
Description: Activity of compounds of this invention in vivo can be determined by the level of elevation of HDL cholesterol relative to control by a given amount of compound in a CETP-containing animal species. A strain of transgenic mice that express both human CETP and human apolipoprotein A-1 (Taconic, Germantown, N.Y.) is used to test compounds of this invention. Test compounds are administered once orally in selected aqueous or oil based vehicles. At various times after dosing, ranging from 4 h to 24 h, blood is obtained. Blood is allowed to clot and serum is obtained by centrifugation. HDL cholesterol levels in the serum is determined by HDL-C plus reagents (Roche/Hitachi, Indianapolis, Ind.) with a clinical chemistry analyzer (Roche/Hitachi, Indianapolis, Ind.). Additional serum lipids can be analyzed by enzymatic methods. Lipids in the VLDL, LDL and HDL fractions are analyzed by enzymatic methods after precipitation or size exclusion chromatography.

| Compound | % HDL cholesterol increase |
| --- | --- |
| CC(=O)N(Cc1cc(C(F)(F)F)cc(C(F)(F)F)c1)[C@H]1CCCN(C(=O)OC(C)(C)C)c2cc(C(F)(F)F)c(C)cc21 [Example 119, (S)-5-[Acetyl-(3,5-bis-trifluoromethyl-benzyl)-amino]-7-methyl-8-trifluoromethyl-2,3,4,5-tetrahydro-benzo[b]azepine-1-carboxylic acid tert-butyl ester] | 123% |
